Among the data in ChEMBL document CHEMBL1141195, “Carbonic anhydrase inhibitors. The mitochondrial isozyme VB as a new target for sulfonamide and sulfamate inhibitors” (J Med Chem, 2005) are Ki values, retold here.

Assay [1] has as its target Carbonic anhydrase 5A, mitochondrial (Homo sapiens, UniProt P35218).
For assay [2], the target named is Carbonic anhydrase 5B, mitochondrial (Homo sapiens, UniProt Q9Y2D0).
Sequence of Carbonic anhydrase 5B, mitochondrial (Q9Y2D0 whole entry): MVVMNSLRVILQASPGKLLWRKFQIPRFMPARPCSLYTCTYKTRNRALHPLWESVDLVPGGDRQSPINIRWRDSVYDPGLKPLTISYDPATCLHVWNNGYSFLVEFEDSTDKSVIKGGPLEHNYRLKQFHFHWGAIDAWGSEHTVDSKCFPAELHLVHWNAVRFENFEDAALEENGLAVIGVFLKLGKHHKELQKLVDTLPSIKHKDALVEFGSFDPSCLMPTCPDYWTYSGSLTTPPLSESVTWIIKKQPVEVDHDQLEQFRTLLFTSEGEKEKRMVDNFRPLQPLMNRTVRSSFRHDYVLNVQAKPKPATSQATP

Sequence of Carbonic anhydrase 5A, mitochondrial (P35218 whole entry): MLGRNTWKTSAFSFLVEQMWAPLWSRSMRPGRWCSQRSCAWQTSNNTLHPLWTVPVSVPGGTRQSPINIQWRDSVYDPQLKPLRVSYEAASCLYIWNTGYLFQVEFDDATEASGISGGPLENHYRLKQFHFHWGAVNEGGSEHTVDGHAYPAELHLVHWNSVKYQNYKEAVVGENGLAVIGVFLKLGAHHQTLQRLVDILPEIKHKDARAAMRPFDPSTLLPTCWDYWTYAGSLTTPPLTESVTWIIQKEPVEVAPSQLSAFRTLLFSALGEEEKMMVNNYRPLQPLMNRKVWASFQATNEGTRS

The Ki is a measure of affinity in units of concentration, obtained from inhibition or displacement. Lower therefore signals a stronger hold on the target. As for `NNc1ccccc1S(N)(=O)=O`, the inhibition constant Ki in assay [1] worked out at 9.6 µM; in assay [2], 3.4 µM.

Take `Nc1nnc(S(N)(=O)=O)s1`: the values for the Ki in assay [1] and in assay [2] were 2.3 µM and 2.15 µM, respectively.

In the case of `Nc1ccc(S(=O)(=O)NCc2ccc(S(N)(=O)=O)cc2)cc1`, the inhibitory constant (Ki) worked out at 0.176 µM in assay [1] and 0.024 µM in assay [2].

Regarding `Nc1cc(Cl)c(S(N)(=O)=O)cc1S(N)(=O)=O`, the inhibition constant Ki in assay [2] stood at 6.21 µM.

As to `Nc1ccc(S(N)(=O)=O)cc1I`, the figures for the inhibition constant Ki in assay [1] and in assay [2] were 9.4 µM and 3.3 µM, respectively.

In the case of `Nc1ccc(S(=O)(=O)Nc2nnc(S(N)(=O)=O)s2)cc1`, the Ki in assay [1] is 0.034 µM; in assay [2] it was 0.03 µM.

On to `NS(=O)(=O)c1nnc(-c2ccccc2Cl)s1`, for which the values for the Ki in assay [1] and in assay [2] were 0.043 µM and 0.03 µM, respectively.

Take `Nc1nccc(Nc2ccc(S(N)(=O)=O)cc2)n1`: the Ki came out at 17 µM in assay [1] and 10.2 µM in assay [2].

Take `NS(=O)(=O)c1nc2ccc(O)cc2s1`: the Ki was determined as 0.054 µM in assay [1] and 0.041 µM in assay [2].

Take `Nc1ccccc1S(N)(=O)=O`: the inhibition constant Ki in assay [1] was 15.3 µM; in assay [2], 9.56 µM.

As for `Nc1ccc(S(N)(=O)=O)cc1Br`, the Ki in assay [1] amounted to 7.6 µM; in assay [2] it was 3.54 µM.

For the compound `Cn1nc(S(N)(=O)=O)sc1=N`, the results for the Ki in assay [1] and in assay [2] were 2.16 µM and 2.08 µM, respectively.

As for `NS(=O)(=O)c1ccc(CCO)cc1`, the inhibitory constant (Ki) in assay [1] came out at 8.7 µM; in assay [2] it was 7 µM.

For the compound `Nc1ccc(S(N)(=O)=O)cc1F`, the inhibition constant (Ki) in assay [1] was 9.3 µM; in assay [2], 4.22 µM.

Consider `NS(=O)(=O)c1ccc(CO)cc1`, for which the Ki came out at 9.3 µM in assay [1] and 7.45 µM in assay [2].

For `NCCc1ccc(S(N)(=O)=O)cc1`, the inhibition constant (Ki) was determined as 42.4 µM in assay [1] and 8.95 µM in assay [2].

On to `Nc1ccc(S(N)(=O)=O)cc1Cl`, for which the results for the inhibitory constant (Ki) in assay [1] and in assay [2] were 7.4 µM and 4.3 µM, respectively.

Consider `Nc1ccc(S(=O)(=O)NCCc2ccc(S(N)(=O)=O)cc2)cc1`, for which the values for the inhibition constant Ki in assay [1] and in assay [2] were 0.121 µM and 0.042 µM, respectively.

In the case of `NNc1ccc(S(N)(=O)=O)cc1`, the Ki was found to be 7.7 µM in assay [1] and 3.5 µM in assay [2].

Regarding `NS(=O)(=O)c1ccc(S(=O)(=O)Nc2cccc3c(Cl)c[nH]c23)cc1`, the inhibitory constant (Ki) in assay [1] is 0.079 µM; in assay [2], 0.023 µM.

Take `Nc1cc(C(F)(F)F)c(S(N)(=O)=O)cc1S(N)(=O)=O` [2,4-DISULFAMYLTRIFLUOROMETHYLANILINE]: in assay [2], affinity was put at a Ki of 6.56 µM.

For `CCN[C@H]1CN(CCCOC)S(=O)(=O)c2sc(S(N)(=O)=O)cc21` [BRINZOLAMIDE], the values for the Ki in assay [1] and in assay [2] were 0.05 µM and 0.03 µM, respectively.

Consider `NS(=O)(=O)c1ccc(C(=O)O)cc1` [CARZENIDE], for which the Ki in assay [1] stood at 2.65 µM; in assay [2], 1.56 µM.

For `NCc1ccc(S(N)(=O)=O)cc1` [MAFENIDE], the Ki in assay [1] turned out to be 27.6 µM; in assay [2], 12.3 µM.

Consider `Cc1ccc(S(N)(=O)=O)cc1` [P-TOLUENESULFONAMIDE], for which the values for the Ki in assay [1] and in assay [2] were 4.7 µM and 2.43 µM, respectively.

In assay [1], `Nc1ccc(S(N)(=O)=O)cc1` [SULFANILAMIDE] had a Ki of 32 µM.

As for `CC1(C)O[C@@H]2[C@@H](CO[C@@]3(COS(N)(=O)=O)OC(C)(C)O[C@@H]23)O1` [TOPIRAMATE], the figures for the inhibition constant Ki in assay [1] and in assay [2] were 0.063 µM and 0.03 µM, respectively.
